Experimental data from ChEMBL document CHEMBL4837225, “Water-soluble derivatives of evodiamine: Discovery of evodiamine-10-phosphate as an orally active antitumor lead compound” (Eur J Med Chem, 2021).
Active and inactive are the calls of the source. The rule behind the calls is not given here.

Experiments:
A549 [1] = experiment: Antiproliferative activity against human A549 cells assessed as inhibition of cell proliferation incubated for 72 hrs by CCK8 assay; type: functional, cell-based; settings: A549, 72 h
[2] = molecular target: DNA topoisomerase 2-alpha (Homo sapiens) (UniProt P11388); experiment: Inhibition of TOP2 (unknown origin) assessed as formation of short DNA fragments using supercoiled plasmid DNA at 100 uM by ethidium bromide staining based gel
DNA topoisomerase 2-alpha (Homo sapiens), sequence (P11388 whole entry, the tested form may be a part): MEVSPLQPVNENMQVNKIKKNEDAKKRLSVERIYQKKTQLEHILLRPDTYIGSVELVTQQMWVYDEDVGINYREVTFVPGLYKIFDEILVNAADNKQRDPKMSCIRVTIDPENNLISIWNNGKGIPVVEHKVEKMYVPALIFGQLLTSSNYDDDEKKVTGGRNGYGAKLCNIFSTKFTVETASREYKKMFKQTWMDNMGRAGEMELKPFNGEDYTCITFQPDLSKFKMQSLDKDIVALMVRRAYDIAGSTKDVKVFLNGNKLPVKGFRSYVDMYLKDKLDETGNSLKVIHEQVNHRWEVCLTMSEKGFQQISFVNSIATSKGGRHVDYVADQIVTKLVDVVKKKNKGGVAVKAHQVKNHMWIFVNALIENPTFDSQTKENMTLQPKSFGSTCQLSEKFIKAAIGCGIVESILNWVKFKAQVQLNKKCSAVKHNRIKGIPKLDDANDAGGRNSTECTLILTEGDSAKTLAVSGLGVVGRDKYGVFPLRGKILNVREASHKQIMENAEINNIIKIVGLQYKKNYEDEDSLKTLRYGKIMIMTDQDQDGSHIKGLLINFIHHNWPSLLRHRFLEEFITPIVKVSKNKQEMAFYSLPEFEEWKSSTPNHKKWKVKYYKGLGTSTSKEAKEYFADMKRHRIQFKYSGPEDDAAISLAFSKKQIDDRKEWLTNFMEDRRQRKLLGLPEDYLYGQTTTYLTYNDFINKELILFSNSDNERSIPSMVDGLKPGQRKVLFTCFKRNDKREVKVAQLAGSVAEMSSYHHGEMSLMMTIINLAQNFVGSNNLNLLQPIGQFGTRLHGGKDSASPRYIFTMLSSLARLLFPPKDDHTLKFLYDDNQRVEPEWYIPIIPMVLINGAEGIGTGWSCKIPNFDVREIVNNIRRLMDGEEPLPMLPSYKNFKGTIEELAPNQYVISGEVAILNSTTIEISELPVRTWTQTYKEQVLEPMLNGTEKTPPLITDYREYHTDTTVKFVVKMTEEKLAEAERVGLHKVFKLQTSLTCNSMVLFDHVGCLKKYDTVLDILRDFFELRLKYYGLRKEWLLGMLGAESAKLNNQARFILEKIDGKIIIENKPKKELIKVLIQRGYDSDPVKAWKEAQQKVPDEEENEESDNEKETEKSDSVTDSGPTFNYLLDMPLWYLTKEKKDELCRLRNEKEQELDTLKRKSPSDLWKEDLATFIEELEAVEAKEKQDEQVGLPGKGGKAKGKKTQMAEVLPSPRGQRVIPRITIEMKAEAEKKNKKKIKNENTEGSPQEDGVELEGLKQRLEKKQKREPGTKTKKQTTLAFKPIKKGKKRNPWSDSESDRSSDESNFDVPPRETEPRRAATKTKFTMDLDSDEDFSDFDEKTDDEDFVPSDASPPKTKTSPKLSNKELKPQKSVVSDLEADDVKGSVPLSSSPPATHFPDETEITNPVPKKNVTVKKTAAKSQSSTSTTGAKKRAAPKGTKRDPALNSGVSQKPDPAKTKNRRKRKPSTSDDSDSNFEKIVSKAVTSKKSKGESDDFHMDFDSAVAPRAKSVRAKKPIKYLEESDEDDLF

HCT-116 [3] = experiment: Antitumor activity against human HCT-116 cells xenografted in iv dosed BALB/c nude mouse assessed as inhibition of tumor growth measured by caliper relative to control; type: functional
[4] = Half life in mouse liver microsomes; type: ADME, Microsome
HCT-116 [5] = experiment: Antitumor activity against human HCT-116 cells xenografted in BALB/c nude mouse assessed as inhibition of tumor growth at 60 mg/kg, po BID administered for 21 days measured by caliper relative to control; type: functional; settings: HCT-116, po, 504 h, time 21 day, read-out: TGI
HCT-116 [6] = experiment: Induction of apoptosis in human HCT-116 cells assessed as late apoptotic cells level at 0.5 uM incubated for 48 hrs by annexin V-FITC/propidium iodide staining based flow cytometry (reference value: 1.87%); type: functional
Tubulin = experiment: Inhibition of tubulin polymerization (unknown origin); type: protein-complex assay, Homo sapiens
[7] = molecular target: T1, DNA topoisomerase 1 (Homo sapiens) (UniProt P11387); experiment: Inhibition of TOP1 (unknown origin) assessed as decrease in relaxation of supercoiled DNA using pBR322 plasmid DNA by ethidium bromide staining based gel electrophoresis
T1 sequence (whole entry): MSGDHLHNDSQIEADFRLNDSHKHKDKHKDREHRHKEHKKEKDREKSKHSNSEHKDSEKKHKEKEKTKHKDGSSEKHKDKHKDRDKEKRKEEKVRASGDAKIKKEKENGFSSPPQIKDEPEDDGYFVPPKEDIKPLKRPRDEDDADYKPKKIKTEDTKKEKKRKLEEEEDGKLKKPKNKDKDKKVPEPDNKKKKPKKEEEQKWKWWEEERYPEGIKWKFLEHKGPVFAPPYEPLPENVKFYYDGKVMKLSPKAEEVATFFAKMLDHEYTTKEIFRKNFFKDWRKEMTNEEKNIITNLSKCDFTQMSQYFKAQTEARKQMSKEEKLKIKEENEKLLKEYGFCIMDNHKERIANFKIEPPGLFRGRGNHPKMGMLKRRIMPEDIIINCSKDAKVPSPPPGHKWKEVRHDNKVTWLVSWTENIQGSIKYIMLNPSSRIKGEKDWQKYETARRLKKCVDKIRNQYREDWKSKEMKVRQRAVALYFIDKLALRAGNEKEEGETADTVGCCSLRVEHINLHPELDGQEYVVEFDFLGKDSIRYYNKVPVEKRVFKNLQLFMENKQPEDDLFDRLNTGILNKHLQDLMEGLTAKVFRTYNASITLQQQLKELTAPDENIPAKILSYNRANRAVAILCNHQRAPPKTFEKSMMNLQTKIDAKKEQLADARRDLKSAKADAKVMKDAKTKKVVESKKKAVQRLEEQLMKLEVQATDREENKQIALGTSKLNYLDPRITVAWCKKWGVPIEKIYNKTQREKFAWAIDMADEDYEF

[8] = Toxicity in BALB/c nude mouse xenografted with human A549 cells assessed as effect on body weight at 150 mg/kg, po bid for 14 days; type: organism-based; settings: in vivo, 336 h, time 14 day
[9] = Solubility of the compound in PBS buffer at pH 7.4; type: physicochemical
HCT-116 [10] = experiment: Induction of apoptosis in human HCT-116 cells assessed as late apoptotic cells level at 0.1 uM incubated for 48 hrs by annexin V-FITC/propidium iodide staining based flow cytometry (reference value: 1.87%); type: functional
HCT-116 [11] = experiment: Induction of apoptosis in human HCT-116 cells assessed as early apoptotic cells level at 0.5 uM incubated for 48 hrs by annexin V-FITC/propidium iodide staining based flow cytometry (reference value: 2.02%); type: functional
HCT-116 [12] = experiment: Induction of apoptosis in human HCT-116 cells assessed as early apoptotic cells level at 0.05 uM incubated for 48 hrs by annexin V-FITC/propidium iodide staining based flow cytometry (reference value: 2.02%); type: functional
HCT-116 [13] = experiment: Cell cycle arrest in human HCT-116 cells assessed as accumulation at G2 phase at 0.1 uM incubated for 24 hrs by propidium iodide staining based flow cytometric analysis (Rvb =20 %); type: functional
HCT-116 [14] = experiment: Induction of apoptosis in human HCT-116 cells assessed as late apoptotic cells level at 0.05 uM incubated for 48 hrs by annexin V-FITC/propidium iodide staining based flow cytometry (reference value: 1.87%); type: functional
HCT-116 [15] = experiment: Cell cycle arrest in human HCT-116 cells assessed as accumulation at S phase at 0.1 uM incubated for 24 hrs by propidium iodide staining based flow cytometric analysis (Rvb =44.3 %); type: functional
[16] = Toxicity in BALB/c nude mouse xenografted with human A549 cells assessed as morphological changes in liver at 150 mg/kg, po bid by H&E staining based light microscopic analysis; type: organism-based; settings: in vivo
HCT-116 [17] = experiment: Cell cycle arrest in human HCT-116 cells assessed as accumulation at G1 phase at 0.5 uM incubated for 24 hrs by propidium iodide staining based flow cytometric analysis (Rvb =35.7 %); type: functional
[18] = Toxicity in BALB/c nude mouse xenografted with human A549 cells assessed as morphological changes in kidney at 150 mg/kg, po bid by H&E staining based light microscopic analysis; type: organism-based; settings: in vivo
[19] = Toxicity in BALB/c nude mouse xenografted with human HCT-116 cells assessed as effect on body weight at 150 mg/kg, po bid for 21 days relative to control; type: organism-based; settings: in vivo, 504 h, time 21 day
A549 [20] = experiment: Antitumor activity against human A549 cells xenografted in BALB/c nude mouse assessed as inhibition of tumor growth at 150 mg/kg, po BID for 14 days relative to control; type: functional; settings: 336 h, time 14 day, read-out: TGI
HCT-116 [21] = experiment: Cell cycle arrest in human HCT-116 cells assessed as accumulation at G2 phase at 0.5 uM incubated for 24 hrs by propidium iodide staining based flow cytometric analysis (Rvb =20 %); type: functional
HCT-116 [22] = experiment: Antitumor activity against human HCT-116 cells xenografted in BALB/c nude mouse assessed as inhibition of tumor growth at 150 mg/kg, po BID measured by caliper relative to control; type: functional; settings: HCT-116, po, read-out: TGI
HCT-116 [23] = experiment: Induction of apoptosis in human HCT-116 cells assessed as increase in caspase-3 level at 0.2 to 5 uM measured after 24 hrs by Western blot analysis; type: functional, cell-based; settings: dose 0.2-5 µM
HCT-116 [24] = experiment: Antitumor activity against human HCT-116 cells xenografted in BALB/c nude mouse assessed as necrosis at 150 mg/kg, po bid by H&E staining based light microscopic analysis; type: functional, organism-based
HCT-116 [25] = experiment: Induction of apoptosis in human HCT-116 cells assessed as increase in caspase-9 level at 0.2 to 5 uM measured after 24 hrs by Western blot analysis; type: functional, cell-based; settings: dose 0.2-5 µM
[26] = molecular target: DNA topoisomerase 2-alpha (Homo sapiens) (UniProt P11388); experiment: Inhibition of TOP2 (unknown origin) by ethidium bromide staining based gel electrophoresis

SMILES: CN1c2ccccc2C(=O)N2CCc3c([nH]c4ccc(OP(=O)(O)O)cc34)C21 (configuration not stated)
- IC50 (A549 [1]): 2.6 µM
- inhibition [2]: Active
- TGI (HCT-116 [3]): 45%
- half-life [4]: 58.4 min
- inhibition in vivo at 60 mg/kg (HCT-116 [5]): 48%
- Activity (HCT-116 [6]): 13.49%
- IC50 (Tubulin): 31.6 µM
- inhibition [7]: Dose-Dependent Effect
- Activity [8]: Non-Toxic
- solubility [9]: > 1000 µg/mL
- Activity (HCT-116 [10]): 14.8%
- Activity (HCT-116 [11]): 44.04%
- Activity (HCT-116 [12]): 15.1%
- Activity (HCT-116 [13]): 53.4%
- Activity (HCT-116 [14]): 8.45%
- Activity (HCT-116 [15]): 40.7%
- Activity [16]: Non-Toxic
- Activity (HCT-116 [17]): 4.3%
- Activity [18]: Non-Toxic
- Activity [19]: Toxic
- inhibition in vivo at 150 mg/kg (A549 [20]): 59%
- Activity (HCT-116 [21]): 65.3%
- inhibition in vivo at 150 mg/kg (HCT-116 [22]): 48%
- Activity (HCT-116 [23]): Active
- Activity (HCT-116 [24]): Active
- Activity (HCT-116 [25]): Active
- inhibition [26]: Dose-Dependent Effect
